This passage reports CC50 results from patent publication US9890133B2 (priority 2011, dated 2018).

Converted amounts (≈) assume the structure as drawn.

A short description of one series: in vitro. As to conditions: human.
`CC(C)C(=O)NC12C(=O)c3c(N)cccc3C1(O)Oc1cc(C(C)C)ccc12` (stereo not shown) [Example 77, N-(1-Amino-4b-hydroxy-7-isopropyl-10-oxo-4b,10-dihydro-5-oxa-indeno[2,1-a]inden-9b-yl)-isobutylamide]: the CC50 is 53.9 µg/mL (≈ 142 µM).
On the same count and under the same terms, with `CCCCC(=O)NC12C(=O)c3c(N)cccc3C1(O)Oc1cc(C(C)C)ccc12` (stereo not shown) [Example 78, Pentanoic acid (1-amino-4b-hydroxy-7-isopropyl-10-oxo-4b,10-dihydro-5-oxa-indeno[2,1-a]inden-9b-yl)-amide] the figure was 20.6 µg/mL (≈ 52.3 µM); with `CCCCCCCC(=O)N[C@@]12C(=O)c3c(N)cccc3[C@]1(O)Oc1cc(C(C)C)ccc12` [Example 93, N-((4bS,9bS)-1-Amino-4b-hydroxy-7-isopropyl-10-oxo-9b,10-dihydro-4bH-indeno[1,2-b]benzofuran-9b-yl)octanamide], 6.23 µg/mL (≈ 14.3 µM); with `CCC(=O)N[C@@]12C(=O)c3c(N)cccc3[C@]1(OC(=O)CC)Oc1cc(C(C)C)ccc12` [Example 94, (4bR,9bS)-1-Amino-7-isopropyl-10-oxo-9b-propionamido-9b,10-dihydro-4bH-indeno[1,2-b]benzofuran-4b-yl propionate], 58.1 µg/mL (≈ 137 µM).
The same measure, in the same setting: with `CCCC(=O)N[C@@]12C(=O)c3c(N)cccc3[C@]1(OC(=O)CCC)Oc1cc(C(C)C)ccc12` [Example 95, (4bR,9bS)-1-Amino-9b-butyramido-7-isopropyl-10-oxo-9b,10-dihydro-4bH-indeno[1,2-b]benzofuran-4b-yl butyrate] the figure was 26 µg/mL (≈ 57.7 µM).
With `CCCCCC(=O)NC12C(=O)c3c(N)cccc3C1(OC(=O)CCCCC)Oc1cc(C(C)C)ccc12` (stereo not shown) [Example 97, 1-amino-9b-hexanamido-7-isopropyl-10-oxo-9b,10-dihydro-4bH-benzo[d]indeno[1,2-b]furan-4b-yl hexanoate], the CC50 came out at 8.8 µg/mL (≈ 17.4 µM).
Still for that read-out and setting: the figure for `CCCCCCC(=O)NC12C(=O)c3c(N)cccc3C1(OC(=O)CCCCCC)Oc1cc(C(C)C)ccc12` (stereo not shown) [Example 99, 1-Amino-9b-heptanamido-7-isopropyl-10-oxo-9b,10-dihydro-4bH-benzo[d]indeno[1,2-b]furan-4b-yl heptanoate] is 7.7 µg/mL (≈ 14.4 µM).

Still in this series, the particulars now being: human, Picorana CC50.
Molecule `CC(=O)Nc1c(N)ccc2c1C(=O)C1(O)c3ccc(C(C)C)cc3OC21O` (stereo not shown) [Example 59, N-(2-Amino-4b,9b-dihydroxy-7-isopropyl-10-oxo-9b,10-dihydro-4bH-benzo[d]indeno[1,2-b]furan-1-yl)acetamide] showed a CC50 of more than 50 µg/mL.
The molecule `CC(C)c1ccc2c(c1)OC1(O)c3ccc([N+](=O)[O-])c(N)c3C(=O)C21O` (stereo not shown) [Example 60, 1-Amino-4b,9b-dihydroxy-7-isopropyl-2-nitro-4bH-indeno[1,2-b]benzofuran-10(9bH)-one] displayed a CC50 of 10.6 µg/mL (≈ 29.6 µM).
Molecule `CC(C)c1cc(C(C)C)c2c(c1)C1(O)C(=O)c3ccccc3C1(O)O2` (stereo not shown) [Example 64, 4b,9b-Dihydroxy-6,8-diisopropyl-4b,9b-dihydro-5-oxa-indeno[2,1-a]inden-10-one] gave a CC50 of 8.13 µg/mL (≈ 24 µM).
Turning to `CC(C)c1ccc2c(c1)OC1(O)c3ccccc3C(=O)C21N` (stereo not shown) [Example 65, 9b-Amino-4b-hydroxy-7-isopropyl-4b,9b-dihydro-5-oxa-indeno[2,1-a]inden-10-one], the CC50 amounted to 18.2 µg/mL (≈ 61.6 µM).
`CCCCCCNC12C(=O)c3ccccc3C1(O)Oc1cc(C(C)C)ccc12` (stereo not shown) [Example 67, 9b-Hexylamino-4b-hydroxy-7-isopropyl-4b,9b-dihydro-5-oxa-indeno[2,1-a]inden-10-one] registered a CC50 of 9.42 µg/mL (≈ 24.8 µM).
Turning to `CC(C)c1cc(C(C)C)c2c(c1)C1(N)C(=O)c3ccccc3C1(O)O2` (stereo not shown) [Example 68, 9b-Amino-4b-hydroxy-6,8-diisopropyl-4b,9b-dihydro-5-oxa-indeno[2,1-a]inden-10-one], the CC50 is 8.94 µg/mL (≈ 26.5 µM).
`CC(C)c1ccc2c(c1)OC1(O)c3ccccc3C(=O)C21N=C=O` (stereo not shown) [Example 69, 4b-Hydroxy-9b-isocyanato-7-isopropyl-4b,9b-dihydro-5-oxa-indeno[2,1-a]-inden-10-one]: the CC50 turned out to be 70 µg/mL (≈ 218 µM).
Molecule `CC(C)NC(=O)NC12C(=O)c3c([N+](=O)[O-])cccc3C1(O)Oc1cc(C(C)C)ccc12` (stereo not shown) [Example 76, 1-(4b-Hydroxy-7-isopropyl-1-nitro-10-oxo-4b,10-dihydro-5-oxa-indeno[2,1-a]inden-9b-yl)-3-isopropyl-urea] gave a CC50 of more than 50 µg/mL.
Consider `CC(C)C(=O)NC12C(=O)c3c(N)cccc3C1(O)Oc1cc(C(C)C)ccc12` (stereo not shown) [Example 77, N-(1-Amino-4b-hydroxy-7-isopropyl-10-oxo-4b,10-dihydro-5-oxa-indeno[2,1-a]inden-9b-yl)-isobutylamide], for which the CC50 was more than 50 µg/mL.
On to `CCCCC(=O)NC12C(=O)c3c(N)cccc3C1(O)Oc1cc(C(C)C)ccc12` (stereo not shown) [Example 78, Pentanoic acid (1-amino-4b-hydroxy-7-isopropyl-10-oxo-4b,10-dihydro-5-oxa-indeno[2,1-a]inden-9b-yl)-amide], for which the CC50 was determined as 47.7 µg/mL (≈ 121 µM).
Molecule `CO/N=C1/c2ccccc2C2(O)Oc3cc(C(C)C)ccc3C12O` (stereo not shown) [Example 88, 4b,9b-Dihydroxy-7-isopropyl-4bH-indeno[1,2-b]benzofuran-10(9bH)-one O-methyl oxime] came in with a CC50 of 8.16 µg/mL (≈ 25.1 µM).
Consider `CCCC(=O)NC12C(=O)c3ccccc3C1(OC(=O)CCC)Oc1cc(C(C)C)ccc12` (stereo not shown) [Example 89, Butyric acid 9b-butyrylamino-7-isopropyl-10-oxo-9b,10-dihydro-5-oxa-indeno[2,1-a]inden-4b-yl ester], for which the CC50 is more than 50 µg/mL.
As for `CCCCCCCC(=O)NC12C(=O)c3ccccc3C1(O)Oc1cc(C(C)C)ccc12` (stereo not shown) [Example 90], the CC50 amounted to 34 µg/mL (≈ 80.5 µM).
For the molecule `CCCCCC(=O)NC12C(=O)c3ccccc3C1(OC(=O)CCCCC)Oc1cc(C(C)C)ccc12` (stereo not shown) [Example 91, Hexanoic acid 9b-hexanoylamino-7-isopropyl-10-oxo-9b,10-dihydro-5-oxa-indeno[2,1-a]inden-4b-yl ester], the CC50 was more than 50 µg/mL.
`CCCCCCC(=O)NC12C(=O)c3ccccc3C1(OC(=O)CCCCCC)Oc1cc(C(C)C)ccc12` (stereo not shown) [Example 92, Heptanoic acid 9b-heptanoylamino-7-isopropyl-10-oxo-9b,10-dihydro-5-oxa-indeno[2,1-a]inden-4b-yl ester] displayed a CC50 of more than 50 µg/mL.
The molecule `CCCCCCCC(=O)N[C@@]12C(=O)c3c(N)cccc3[C@]1(O)Oc1cc(C(C)C)ccc12` [Example 93, N-((4bS,9bS)-1-Amino-4b-hydroxy-7-isopropyl-10-oxo-9b,10-dihydro-4bH-indeno[1,2-b]benzofuran-9b-yl)octanamide] displayed a CC50 of 8.49 µg/mL (≈ 19.4 µM).
Turning to `CCC(=O)N[C@@]12C(=O)c3c(N)cccc3[C@]1(OC(=O)CC)Oc1cc(C(C)C)ccc12` [Example 94, (4bR,9bS)-1-Amino-7-isopropyl-10-oxo-9b-propionamido-9b,10-dihydro-4bH-indeno[1,2-b]benzofuran-4b-yl propionate], the CC50 was 42.4 µg/mL (≈ 100 µM).
Molecule `CCCC(=O)N[C@@]12C(=O)c3c(N)cccc3[C@]1(OC(=O)CCC)Oc1cc(C(C)C)ccc12` [Example 95, (4bR,9bS)-1-Amino-9b-butyramido-7-isopropyl-10-oxo-9b,10-dihydro-4bH-indeno[1,2-b]benzofuran-4b-yl butyrate] registered a CC50 of 38.1 µg/mL (≈ 84.5 µM).
As to `CCCCCC(=O)NC12C(=O)c3c(N)cccc3C1(OC(=O)CCCCC)Oc1cc(C(C)C)ccc12` (stereo not shown) [Example 97, 1-amino-9b-hexanamido-7-isopropyl-10-oxo-9b,10-dihydro-4bH-benzo[d]indeno[1,2-b]furan-4b-yl hexanoate], the CC50 was more than 50 µg/mL.
For `CO[C@@]12C(=O)c3ccccc3[C@]1(O)Oc1cc(C(C)C)ccc12` [Example 98, (4bS,9bS)-4b-Hydroxy-7-isopropyl-9b-methoxy-4bH-indeno[1,2-b]benzofuran-10(9bH)-one], the CC50 worked out at 7.8 µg/mL (≈ 25.1 µM).
`CCCCCCC(=O)NC12C(=O)c3c(N)cccc3C1(OC(=O)CCCCCC)Oc1cc(C(C)C)ccc12` (stereo not shown) [Example 99, 1-Amino-9b-heptanamido-7-isopropyl-10-oxo-9b,10-dihydro-4bH-benzo[d]indeno[1,2-b]furan-4b-yl heptanoate] had a CC50 of more than 50 µg/mL.
In turn, `CO[C@@]12Oc3cc(C(C)C)ccc3[C@]1(NC(N)=O)C(=O)c1ccccc12` [Example 100, 1-((4bS,9bS)-7-Isopropyl-4b-methoxy-10-oxo-9b,10-dihydro-4bH-indeno[1,2-b]benzofuran-9b-yl)urea] returned a CC50 of 40.6 µg/mL (≈ 115 µM).
The same measure, in the same setting: the figure for `CNC(=O)N[C@@]12C(=O)c3ccccc3[C@]1(O)Oc1cc(C(C)C)ccc12` [Example 101, 1-((4bS,9bS)-4b-Hydroxy-7-isopropyl-10-oxo-9b,10-dihydro-4bH-indeno[1,2-b]benzofuran-9b-yl)-3-methylurea] is more than 50 µg/mL.
In the case of `CCNC(=O)N[C@@]12C(=O)c3ccccc3[C@]1(O)Oc1cc(C(C)C)ccc12` [Example 102, 1-Ethyl-3-((4bS,9bS)-4b-hydroxy-7-isopropyl-10-oxo-9b,10-dihydro-4bH-indeno[1,2-b]benzofuran-9b-yl)urea], the CC50 was more than 50 µg/mL.
Molecule `CONC(=O)N[C@@]12C(=O)c3ccccc3[C@]1(O)Oc1cc(C(C)C)ccc12` [Example 103, 1-((4bS,9bS)-4b-Hydroxy-7-isopropyl-10-oxo-9b,10-dihydro-4bH-indeno[1,2-b]benzofuran-9b-yl)-3-methoxyurea] showed a CC50 of more than 50 µg/mL.
For the molecule `CC(=O)N1c2cc(C)c(C)cc2C2(O)C(=O)c3ccccc3C12O` (stereo not shown) [Example 104, 5-Acetyl-4b,9b-dihydroxy-7,8-dimethyl-4b,5-dihydroindeno[1,2-b]indol-10(9bH)-one], the CC50 is more than 50 µg/mL.
`CCC(=O)N1c2cc(C)c(C)cc2C2(O)C(=O)c3ccccc3C12O` (stereo not shown) [Example 105, 4b,9b-Dihydroxy-7,8-dimethyl-5-propionyl-4b,5-dihydroindeno[1,2-b]indol-10(9bH)-one] returned a CC50 of more than 50 µg/mL.
On to `Cc1cc2c(cc1C)C1(O)C(=O)c3ccccc3C1(O)N2` (stereo not shown) [Example 106, 4b,9b-Dihydroxy-7,8-dimethyl-4b,5-dihydroindeno[1,2-b]indol-10(9bH)-one], for which the CC50 came out at 3.53 µg/mL (≈ 12.5 µM).
As to `CC(=O)OC12C(=O)c3ccccc3C1(OC(C)=O)N(C(C)=O)c1cc(C)c(C)cc12` (stereo not shown) [Example 107, 5-Acetyl-7,8-dimethyl-10-oxo-4b,5,9b,10-tetrahydroindeno[1,2-b]indole-4b,9b-diyl diacetate], the CC50 was more than 50 µg/mL.
`CC(=O)N1c2ccccc2C2(N)C(=O)c3ccccc3C12O` (stereo not shown) [Example 108, 5-Acetyl-9b-amino-4b-hydroxy-5,9b-dihydro-4bH-indeno[1,2-b]indol-10-one] had a CC50 of 1.81 µg/mL (≈ 6.15 µM).
Turning to `CC(=O)Nc1ccc([N+](=O)[O-])c2c1C(=O)C1(N)c3ccc(C(C)C)cc3OC21O` (stereo not shown) [Example 109, N-(9b-Amino-4b-hydroxy-7-isopropyl-4-nitro-10-oxo-9b,10-dihydro-4bH-5-oxa-indeno[2,1-a]inden-1-yl)-acetamide], the CC50 was more than 50 µg/mL.
`CC(=O)Nc1ccc([N+](=O)[O-])c2c1C(=O)C1(NC(C)=O)c3ccc(C(C)C)cc3OC21OC(C)=O` (stereo not shown) [Example 110, Acetic acid 1,9b-bis-acetylamino-7-isopropyl-4-nitro-10-oxo-9b,10-dihydro-5-oxa-indeno[2,1-a]inden-4b-yl ester] gave a CC50 of 14.4 µg/mL (≈ 29.9 µM).
Same read-out and setting: with `COC(=O)OC12Oc3cc(C(C)C)ccc3C1(NC(C)=O)C(=O)c1ccccc12` (stereo not shown) [Example 111, 9b-Acetamido-7-isopropyl-10-oxo-9b,10-dihydro-4bH-indeno[1,2-b]benzofuran-4b-yl methyl carbonate] the figure was 43.6 µg/mL (≈ 110 µM).
Same read-out and setting: with `CCCCC(=O)OC12Oc3cc(C(C)C)ccc3C1(NC(C)=O)C(=O)c1ccccc12` (stereo not shown) [Example 112, 9b-Acetamido-7-isopropyl-10-oxo-9b,10-dihydro-4bH-indeno[1,2-b]benzofuran-4b-yl pentanoate] the figure was 42 µg/mL (≈ 99.6 µM).
With `CCOC(=O)OC12Oc3cc(C(C)C)ccc3C1(NC(C)=O)C(=O)c1ccccc12` (stereo not shown) [Example 116, 9b-Acetamido-7-isopropyl-10-oxo-9b,10-dihydro-4bH-benzo[d]indeno[1,2-b]furan-4b-yl ethyl carbonate], the CC50 stood at 41.7 µg/mL (≈ 102 µM).
As to `CC(=O)NC12C(=O)c3ccccc3C1(OC(=O)C(C)(C)C)Oc1cc(C(C)C)ccc12` (stereo not shown) [Example 117, 9b-Acetamido-7-isopropyl-10-oxo-9b,10-dihydro-4bH-benzo[d]indeno[1,2-b]furan-4b-yl pivalate], the CC50 is more than 50 µg/mL.
